Results as given in patent publication US20220324965A1, “COMBINATION THERAPY INVOLVING ANTIBODIES AGAINST CLAUDIN 18.2 AND IMMUNE CHECKPOINT INHIBITORS FOR TREATMENT OF CANCER” (Astellas Pharma Inc., priority 2019, published 2022).

How the values were obtained:
Assay type in all cases: in vivo
[1] = tested on: CLS-103 LVT-murinCLDN18.2 syngeneic tumors; experiment: Efficacy of IMAB362 plus anti-mPD-L1 antibody in subcutaneous syngeneic gastric carcinoma model, endpoint day 14 (Example 4); settings: n=12 per group, IMAB362 800 μg/mouse, anti-mPD-L1 antibody 300 μg/mouse, intraperitoneal twice per week, vs Rituximab/isotype control group
Text: (§1) In order to determine whether a combination of an anti-CLDN18.2 antibody and an immune checkpoint inhibitor improves anti-tumor activity over the single agents alone in vivo, anti-tumor activity of IMAB362 in combination with an anti-mPD-L1 antibody was examined in a subcutaneously transplanted syngeneic gastric carcinoma model in immunocompetent outbred Crl:NMRI(Han) mice using CLS-103 cells with lentiviral transduction of murine CLDN18.2 (CLS-103 LVT-murinCLDN18.2). Rituximab was used as an isotype control of IMAB362.
(§2) • Anti-CLDN18.2 antibody: IMAB362 (Astellas Pharma Inc.) • control antibody: Rituximab BS Intravenous Infusion [KHK] […]
(§3) Lentivirally transduced mouse CLDN18.2 expressing tumor cells (CLS-103 LVT-murinCLDN18.2) were engrafted subcutaneously into the right flank of female Crl:NMRI(Han) mice (11-week-old) at 2×10^6 cells/mouse. Mice were randomized based on tumor volume measured 2 days after engraftment into 4 groups (n=12 per group). […] Tumors were measured twice per week. […] Tumor volume was determined by length×width×width×0.5. Tumor growth inhibition (TGI [%]) or tumor regression rate (TRR [%]) of each group was calculated using the equations described below. […]

[2] = tested on: CLS-103 LVT-murinCLDN18.2 syngeneic tumors; experiment: Efficacy of IMAB362 plus anti-mCTLA-4 antibody in subcutaneous syngeneic gastric carcinoma model, endpoint day 14 (Example 3); settings: n=12 per group, IMAB362 800 μg/mouse, anti-mCTLA-4 antibody 300 μg/mouse, intraperitoneal twice per week, vs Rituximab/isotype control group
Text: as §1, with “anti-mCTLA-4” for “anti-mPD-L1”
as §2, §3

[3] = tested on: CLS-103 LVT-murinCLDN18.2 syngeneic tumors; experiment: Efficacy of IMAB362 plus anti-mPD-1 antibody in subcutaneous syngeneic gastric carcinoma model, endpoint day 14 (Example 1); settings: female Crl:NMRI(Han) mice, n=12 per group, IMAB362 800 μg/mouse, anti-mPD-1 antibody 100 μg/mouse, intraperitoneal twice per week, vs Rituximab/isotype control group
Text: as §1, with “provides improved” for “improves”, “anti-mPD-1” for “anti-mPD-L1”, “[…]).” for “LVT-murinCLDN18.2).”
as §2
as §3, with “(10-week-old)” for “(11-week-old)”, “(TGI[%])” for “(TGI [%]) or tumor regression rate (TRR [%])”, “equation” for “equations”

[4] = tested on: CLS-103 LVT-murinCLDN18.2 syngeneic tumors; experiment: Long-term efficacy of IMAB362 plus anti-mPD-1 antibody in subcutaneous syngeneic gastric carcinoma model, up to day 28 (Example 2); settings: IMAB362 800 μg/mouse, anti-mPD-1 antibody 100 μg/mouse, intraperitoneal twice per week
Text: as §1, with “vivo in long-term period,” for “vivo,”, “anti-mPD-1” for “anti-mPD-L1”, “examined up to day 28” for “examined”
as §2
Lentivirally transduced mouse CLDN18.2 expressing tumor cells (CLS-103 LVT-murinCLDN18.2) were engrafted subcutaneously into the right flank of female Crl:NMRI(Han) mice (11-week-old) at 2×10^6 cells/mouse. Mice were randomized based on tumor volume measured 2 days after engraftment into 4 groups (n=12 per group). […] Tumors were measured twice per week. […] Tumor volume was determined by length×width×width×0.5. Mean tumor volume was calculated up to day 21 since 1 of 12 mice in the Rituximab/isotype treated group, as well as in the anti-mPD-1 antibody single agent group, was sacrificed due to tumor size being over 2000 mm^3. […] Complete regression (CR) was determined up to day 28 as the tumor volume of individual regressed to zero. […]

IMAB362: chimeric IgG1 antibody directed against CLDN18.2; heavy chain SEQ ID NO: 51, light chain SEQ ID NO: 24
Tumor growth inhibition (TGI) [1]: 60% | Tumor growth inhibition (TGI) [2]: 72% | Tumor growth inhibition (TGI) [3]: 50% | Tumor growth inhibition (TGI) ([4]; day 21, n=12 per group, vs Rituximab/isotype control group): 40% | number of mice with complete regression (CR) in the group of 12 mice ([4]; day 28, CR = tumor volume regressed to zero): 2
